According to patent US7618968B2, “Aryl triazines as LPAAT-β inhibitors and uses thereof” (Cell Therapeutics, Inc., priority 2001, dated 2009):

These molecules were tested against T1, LPAAT-β (Homo sapiens, UniProt O15120) (assay: LPAAT-β cell-free assay (colorimetric primary screen, radiometric/fluorescent TLC secondary assay)). Conditions: Sf9 cell membrane overexpressing LPAAT-β.
T1 construct: the full-length human LPAAT-β cDNA was amplified by PCR; poly-histidine tag (from pFastBac HTc vector) (N); made in house; host or cells: Sf9 insect cells (baculovirus); membrane fraction used
T1 sequence (O15120 24-278): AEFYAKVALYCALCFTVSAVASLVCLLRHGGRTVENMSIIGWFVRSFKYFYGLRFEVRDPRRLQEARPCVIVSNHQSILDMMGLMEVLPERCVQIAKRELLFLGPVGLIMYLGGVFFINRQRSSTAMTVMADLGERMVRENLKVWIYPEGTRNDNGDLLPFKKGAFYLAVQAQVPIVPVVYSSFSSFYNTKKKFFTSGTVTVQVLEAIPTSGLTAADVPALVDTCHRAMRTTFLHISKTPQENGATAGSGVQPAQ
Type: biochemical
Text: A. Production of Recombinant LPAAT-β for Assays
For the construction of Baculovirus expression vectors, the full-length human LPAAT-β cDNA was amplified by PCR from the DNA template pCE9.LPAAT-β (West et al., DNA Cell Biol. 16:691-701 (1997)) using the primers 5′-[…] […] […] […]-3′ (olpb1F; SEQ ID NO:1) and 5′-[…] […] […]-3′ (olpb1R; SEQ ID NO:2). The ˜870 bp fragment generated was reamplified by PCR using the primers 5′[…] […] […] […] ATC-3′ (olpb2F; SEQ ID NO:3) and 5′-[…] […] […]-3′ (olpb1R; SEQ ID NO:2). The ˜890 bp fragment generated was then cleaved with Sal I and Xba I for insertion into pFastBac™ HTc vector (Life Technologies, Gaithersberg, Md.) between the Sal I and Xba I sites for the generation of the plasmid pFB.LPAAT-β. This plasmid was then transformed into E. coli DH10Bac™ (Life Technologies, Gaithersberg, Md.) for the generation of recombinant Bacmid DNA for transfection in HighFive (Invitrogen, San Diego, Calif.) or SF9 insect cells for the production of recombinant Baculovirus stocks using the protocol described in the Bac-to-Bac® Baculovirus Expression System (Life Technologies, Gaithersberg, Md.), a eukaryotic expression system for generating recombinant baculovirus through site-specific transposition in E. coli. Viral stocks harvested from the transfected cells can then be used to infect fresh insect cells for the subsequence expression of LPAAT-β fusion protein with a poly-histidine tag and a myc-epitope near its N-terminus. The membrane fraction from these Sf9 cells would be the source of LPAAT enzyme.
B. Preparation of Cell Membranes from Sf9 Cells
For the preparation of membranes from Sf9 Cells, all steps are performed on ice or at 4° C. Sf9 cell pellets (˜10^8 cells) were thawed and resuspended in 1-2 ml of buffer A (20 mM Hepes, pH 7.5, 1 mM DTT, 1 mM EDTA, 20% w/v glycerol, 1 mM Benzamidine, 1 μg/ml soybean trypsin inhibitor (SBTI), 1 μg/ml pepstatin A) w/o DTT but with 1 mM Pefabloc. The cells were lysed by sonication using a Branson Sonifier at output=2, duty cycle=2, 10 pulses each at 10s. with the tip of small sonicator probe submerged but not touching the walls. DTT was then added to 1 mM from a 1 M stock. The samples were centrifuged at 1500 rpm for 5 min. The low speed supernatant was saved and centrifuged (TLA 100.3 rotor, polycarbonate tubes, 2 ml/tube or 1.5 ml/tube minimum) at 100000×g for 1 hr. The high speed pellet was resuspend in Buffer A with a probe sonicator (10 pulses @ output #2 and duty cycle 20%) as a source of LPAAT enzyme.
C. Assay of LPAAT-β Activity
LPAAT-β catalyzes the transfer of an acyl group from a donor such as acyl-CoA to LPA. The transfer of the acyl group from acyl-CoA to LPA leads to the release of free CoA, which can be reacted with the thiol reagent, 5,5′-dithiobis(2-nitrobenzoic acid) (DTNB). The reaction between DTNB and the free sulfhydryl group from CoA generates a yellow-colored product, 3-carboxylato-4-nitrothiophenolate (CNP), that absorbs at 413 nm. LPAAT-β derived from Sf9 cell membrane overexpressing LPAAT-β were resuspended in HEPES saline buffer (20 mM HEPES pH 7.5, 150 mM NaCl), 1 mg/ml BSA and 72 μl aliquots were distributed into 96-well microtiter plates. 8 μl of compound of interest at 200 μM dissolved in 100% DMSO was added into each well. 20 μl of 1 mM 18:1-CoA and 1 mM sn-1-18:1 lysoPA was then added to each well to initiate the reaction and allowed to run at room temperature for 25 min. 100 μl of 1 mM DTNB in 100% ethanol was then added to each well to quench the reaction and for color development. The absorbance at 405 nm, measured using a spectrophotometer plate reader, is proportional to the activity of LPAAT-β in the sample. This colorimetric assay was used for the high throughput screening of LPAAT inhibitors.

In order of falling IC50:
1. Cc1ccc(Cl)cc1-c1nc(N)nc(Nc2ccc(COC(=O)CC[C@H](N)C(=O)O)cc2)n1 [Example 63, (S)-2-Amino-pentanedioic acid 5-{4-[4-amino-6-(5-chloro-2-methyl-phenyl)-[1,3,5]triazin-2-ylamino]-benzyl}ester]  3100 nM
2. CCOc1ccc(Cl)cc1-c1nc(N)nc(Nc2ccc(C(O)CO)cc2)n1 (centres unmarked) [Example 69]  2600 nM
3. CCOc1ccc(Cl)cc1-c1nc(N)nc(Nc2ccc(C)cc2)n1 [Example 61, 6-(5-Chloro-2-ethoxyphenyl)-N-p-tolyl-[1,3,5]triazine-2,4-diamine]  2300 nM
4. Cc1ccc(Cl)cc1-c1nc(N)nc(Nc2ccc(COC(=O)C[C@H](N)C(=O)O)cc2)n1 [Example 73, (S)-2-Amino-succinic acid 4-{4-[4-amino-6-(5-chloro-2-methyl-phenyl)-[1,3,5]triazin-2-ylamino]-benzyl}ester]  2100 nM
5. Cc1ccc(Cl)cc1-c1nc(N)nc(Nc2ccc(CN(C)C)cc2)n1 [Example 58, 6-(5-Chloro-2-methyl-phenyl)-N-(4-dimethylaminomethyl-phenyl)-[1,3,5]triazine-2,4-diamine]  1800 nM
6. Cc1ccc(Cl)cc1-c1nc(N)nc(Nc2ccc(COC(=O)[C@@H](N)CC(=O)O)cc2)n1 [Example 72, (S)-2-Amino-succinic acid 1-{4-[4-amino-6-(5-chloro-2-methyl-phenyl)-[1,3,5]triazin-2-ylamino]-benzyl}ester]  1400 nM
7. Cc1ccc(Cl)cc1-c1nc(N)nc(Nc2ccc(CC(=O)O)cc2)n1 [Example 60, {4-[4-Amino-6-(5-chloro-2-methyl-phenyl)-[1,3,5]triazin-2-ylamino]-phenyl}-acetic acid]  1300 nM
8. CCOc1ccc(Cl)cc1-c1nc(N)nc(Nc2ccc(Cl)c(C(=O)NC)c2)n1 [Example 62, 5-[4-Amino-6-(5-chloro-2-ethoxyphenyl)-[1,3,5]triazin-2-ylamino]-2-chloro-N-methylbenzamide]  1000 nM
9. Cc1ccc(Cl)cc1-c1nc(N)nc(Nc2ccc(COC(=O)[C@@H](N)CCCNC(=N)N)cc2)n1 [Example 75, (S)-2-Amino-5-guanidino-pentanoic acid 4-[4-amino-6-(5-chloro-2-methyl-phenyl)-[1,3,5]triazin-2-ylamino]-benzyl ester]  970 nM
10. Cc1ccc(Cl)cc1-c1nc(N)nc(Nc2ccc(COC(=O)CCC(=O)O)cc2)n1 [Example 70]  830 nM
11. CCc1cccc(Nc2nc(N)nc(-c3cc(Cl)ccc3C)n2)c1 [Example 66, 6-(5-Chloro-2-methyl-phenyl)-N-(3-ethyl-phenyl)-[1,3,5]triazine-2,4-diamine]  750 nM
12. C=Cc1ccc(Nc2nc(N)nc(-c3cc(Cl)ccc3C)n2)cc1 [Example 67, 6-(5-Chloro-2-methyl-phenyl)-N-(4-vinyl-phenyl)-[1,3,5]triazine-2,4-diamine]  710 nM
13. CNc1nc(Nc2ccc(CO)cc2)nc(-c2cc(Cl)ccc2C)n1 [Example 74, {4-[4-(5-Chloro-2-methyl-phenyl)-6-methylamino-[1,3,5]-triazin-2-ylamino]-phenyl}-methanol]  680 nM
14. COCCOc1ccc(Cl)cc1-c1nc(N)nc(Nc2ccc(Cl)cc2)n1 [Example 65, 6-[5-Chloro-2-(2-methoxy-ethoxy)-phenyl]-N-(4-chloro-phenyl) [1,3,5]triazine-2,4-diamine]  600 nM
15. Cc1ccc(Cl)cc1-c1nc(N)nc(Nc2ccc(COC(=O)CN)cc2)n1 [Example 71, Amino-acetic acid 4-[4-amino-6-(5-chloro-2-methyl-phenyl)-[1,3,5]triazin-2ylamino]-benzyl ester]  480 nM
16. Cc1ccc(Nc2nc(N)nc(-c3cc(Cl)ccc3C)n2)cc1C [Example 59, 6-(5-Chloro-2-methyl-phenyl)-N-(3,4-dimethyl-phenyl)-[1,3,5]triazine-2,4-diamine]  400 nM
17. Cc1ccc(Cl)cc1-c1nc(N)nc(Nc2ccc(CF)cc2)n1 [Example 68, 6-(5-Chloro-2-methyl-phenyl)-N-(4-fluoromethyl-phenyl)-[1,3,5]-triazine-2,4-diamine]  130 nM
